Values joined by “and” are separate entries in the source; they are usually repeats but may differ in a detail not shown here. Identical values can stand only once. Positions of bridges follow the written chain, without caps; N, C: chain ends. Non-standard residues stand in square brackets, D forms with d. Residues, ends and D or L forms follow the SMILES beside them. *: point of attachment. DOTA = O=C(O)CN1CCN(CC(=O)O)CCN(CC(=O)*)CCN(CC(=O)O)CC1; Cha = N[C@@H](CC1CCCCC1)C(=O)O
What was measured:
uPAR [1] = biological target: T1, uPAR (Homo sapiens, UniProt Q03405); assay: SPR real-time binding kinetics, peptides in solution and immobilised uPAR; settings: for kon: read-out: kon
T1 construct: Recombinant human uPAR^1–283 was expressed; made in house; host or cells: Drosophila melanogaster S2 cells
T1 sequence (Q03405 23-305): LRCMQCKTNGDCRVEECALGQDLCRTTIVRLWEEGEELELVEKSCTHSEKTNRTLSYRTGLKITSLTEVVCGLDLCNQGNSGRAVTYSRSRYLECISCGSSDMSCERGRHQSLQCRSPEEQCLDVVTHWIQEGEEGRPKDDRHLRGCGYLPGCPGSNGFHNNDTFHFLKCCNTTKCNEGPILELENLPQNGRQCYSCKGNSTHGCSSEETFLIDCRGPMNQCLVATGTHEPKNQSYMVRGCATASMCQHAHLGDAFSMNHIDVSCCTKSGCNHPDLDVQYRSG
Description: The real-time binding kinetics of uPAR•peptide interactions were measured with SPR using a Biacore T200™(Cytiva); essentially as described in[56],[77]. In brief, uPAR was covalently immobilised on a CM5 sensor chip via amine coupling resulting in a surface density of 1157–1581 RU (~ 33–44 fmol/mm^2). The binding kinetics for the peptides to immobilised uPAR were measured using a single cycle protocol. In this setup, peptides were injected as five serial two-fold dilutions with a contact time of 200 s. After the last analyte injection, the dissociation time was set to 1000 s. The sensor chip was regenerated with two consecutive injections of 0.1 M acetic acid in 0.5 M NaCl. All experiments were conducted at 20 °C with a flow rate of 50 µL/min in 10 mM HEPES, 150 mM NaCl, 3 mM EDTA, and 0.05% (v/v) surfactant P-20 at pH 7.4. The kinetic rate constants (kon and koff) were determined by non-linear regression fitting of the curves to the simple bimolecular interaction model (BiacoreT200 Evaluation™ 3.0 software).

uPAR [2] = biological target: T1, uPAR; assay: Nano-DSF thermal stability of uPAR•peptide complexes; settings: for Tm (apparent melting temperature of uPAR•peptide complex): 15 µM uPAR, 30 µM peptide, PBS pH 7.4, n = 3; for decrease in apparent Tm on introduction of spacer: (4) vs (1), (6) vs (3)
Description: The thermal stability of the uPAR•peptide complexes was analyzed with Nano-DSF using a Prometheus NT.48™ (Nanotemper). uPAR (15 µM) was mixed with twofold excess of peptide (30 µM) in PBS pH 7.4 and incubated for 15 min at RT to ensure complex formation. Samples containing either 15 µM uPAR or 30 µM of each peptide were included as controls. The samples were loaded into standard capillaries and in triplicates. To unfold the proteins, the samples were exposed to an increasing temperature gradient from 20 to 95 °C with a ramping rate of 1 °C/min. The excitation power was set to 50% (Ex.280 nm) and the fluorescence emission collected at 330 nm and 350 nm. The melting temperatures of the complexes were determined in the PR.ThermControl software (Nanotemper) from the first derivative of the fluorescence ratio (350 nm/330 nm).

uPAR•uPA interaction = biological target: T2, uPAR•uPA interaction (Homo sapiens, UniProt Q03405); assay: SPR competition assay of the uPAR•uPA interaction; type: binding; settings: for IC50: competition of uPAR•uPA interaction, 2 nM uPAR, 20 °C, n = 3
T2 construct: Recombinant human uPAR^1–283 was expressed; made in house; host or cells: Drosophila melanogaster S2 cells
T2 sequence (Q03405 23-305): as above
Description: The IC50-values of antagonistic peptides on the uPAR•uPA interaction were determined with SPR using a Biacore T200™ or Biacore 3000™ instruments (Cytiva) essentially as described[4],[56],[77]. In brief, we immobilized high levels of pro-uPA^S356A (0.1 pmol pro-uPA/mm^2) on a CM5 sensor chip via amine coupling. The experiments were conducted by injecting 2 nM uPAR in presence of a threefold dilution series of a given antagonistic peptide for 300 s with a flow rate of 50 µL/min at 20 °C. The high immobilization levels result in binding conditions that are entirely controlled by mass transport limitations (MTL). Accordingly, the observed association rates (vobs) are directly proportional to the concentrations of binding-active uPAR in solution. To determine the IC50, we also measured a standard curve of uPAR binding (a twofold dilution series of 0.06 to 2 nM uPAR, linear due to MTL). The running buffer was 10 mM HEPES, 150 mM NaCl, 3 mM EDTA, and 0.05% (v/v) surfactant P-20 at pH 7.4, and the regeneration buffer was 0.1 M acetic acid in 0.5 M NaCl.

[3] = tested on: uPAR expression in U87MG tumor-bearing mice; type: in vivo; settings: [64Cu]Cu-DOTA peptides, PET scanning or ex vivo counting of resected organs
Description: Five weeks old female NMRI nude mice were purchased from Janvier (Le Genest-Saint-Isle, France) and housed in groups to acclimatize for a week upon arrival with light/dark period of 12/12 h and under controlled environmental conditions (temperature: 20–22 °C, relative humidity: 55%). Access to fresh water and standard pellet diet was provided ad libitum. Human glioblastoma cancer cell line U87MG (ATCC, Manassas, USA) was cultured in Dulbecco’s modified eagle medium (DMEM) supplemented with 10% fetal bovine serum and 1% penicillin–streptomycin at 37 °C and 5% CO2. Cells were harvested by trypsinization at a confluence of 70–90%. Mice were anesthetized (3–4% sevoflurane in 65% N2 and 35% O2) and ~ 4 × 10^6 U87MG cells resuspended in 100 μL PBS were injected subcutaneously into the right flank. Tumors were allowed to grow for 20 days. Tumor sizes were monitored using caliper measurements (Volume = 0.5 x (Length x Width^2)).
Tumor-bearing mice (tumor volumes (mean ± SD) of 221 ± 105 mm^3) were grouped (n = 6 per group) and anesthetized (3–4% sevoflurane in 65% N2 and 35% O2) prior to imaging. The four different [^64Cu]Cu–DOTA conjugated peptides were administered via tail vein injections of 5.4 ± 0.4 MBq corresponding to 118 ± 7 pmol (1b), 111 ± 4 pmol (8b), 92 ± 3 pmol (9b), and 75 ± 4 pmol (11b) (mean ± SD). Whole-body imaging consisting of a CT acquisition followed by a static PET acquisition was performed on an Inveon® small animal imaging system (Siemens Medical Systems, Malvern, PA, USA). PET/CT imaging was performed 1 h, 22 h, and 46 h post-injection (p.i.) of tracer with a 5 min, 10 min and 15 min PET scan, respectively. During scans the animals were placed on a heated bedding system to keep the body temperature stable. The PET acquisition was performed with an energy window of 350–650 keV and a time resolution of 6 ns, and data was corrected for dead time and decay. The CT scan consisted of 360 projections, with a tube voltage of 65 kV, a tube current of 500 μA and an exposure time of 400 ms per projection. Sinograms from PET scans were reconstructed using a 3-dimensional maximum a posteriori algorithm with correction for scatter and attenuation (CT-based). PET and CT images were co-registered and analyzed using Inveon Research Workplace software (Siemens Medical Solutions). The mean percentage of injected dose per grams (%ID/g) in different tissues was extracted by manually creating regions of interest (ROI) on fused PET/CT images.

uPAR [4] = settings: read-out: KD of the uPA•uPAR interaction; cited from earlier work
[5] = single cycle SPR, immobilised uPAR, 20 °C
[6] = single cycle SPR, immobilised uPAR, 20 °C, 1:1 model
[7] = DOTA-conjugated peptides with spacer, compared to (4b)
[8] = [63Cu]-DOTA labelled peptides, single-cycle SPR

Row | Molecule | koff (uPAR [1]; [5]) | Kd (uPAR [1]; [6]) | kon (uPAR [1]; [5]) | IC50 (uPAR•uPA interaction) | Tm (apparent melting temperature of uPAR•peptide complex) (uPAR [2]) | further results
1 | CC(C)C[C@@H]1NC(=O)[C@H](Cc2ccc(O)cc2)NC(=O)[C@H](NC(=O)[C@@H](CO)NC(=O)[C@H](Cc2ccccc2)NC(=O)[C@H](CC2CCCCC2)NC(=O)[C@H](CC(=O)O)NC(=O)CNC(=O)CNC(=O)[C@@H](CO)NC(=O)CNC(=O)[C@H](CCC(=O)O)NC(=O)[C@H](CCC(=O)O)NC(=O)CN2CCN(CC(=O)O)CCN(CC(=O)O)CCN(CC(=O)O)CC2)CSSC[C@@H](C(=O)O)NC(=O)[C@H](Cc2c[nH]c3ccccc23)NC1=O [6b] ({DOTA}-EEG[dS]GGD[Cha]F[dS][dC]YLWC-OH; disulfide 11-15) | 0.00977 ± 1e-05 s⁻¹ | 20.3 nM | 481000 ± 1000 M⁻¹ s⁻¹ | 15.8 ± 0.4 nM | 61.3 ± 0.4 °C | increase in apparent Tm (uPAR [2]; [7]): 6–14 °C
2 | CC(C)C[C@H](NC(=O)[C@H](Cc1ccc(O)cc1)NC(=O)[C@@H](CCCNC(=N)N)NC(=O)[C@@H](CO)NC(=O)[C@H](Cc1ccccc1)NC(=O)[C@H](CC1CCCCC1)NC(=O)[C@H](CC(=O)O)NC(=O)CN1CCN(CC(=O)O)CCN(CC(=O)O)CCN(CC(=O)O)CC1)C(=O)N[C@@H](Cc1c[nH]c2ccccc12)C(=O)N[C@@H](CO)C(N)=O [8b] | 0.002064 ± 2e-06 s⁻¹ | 4.22 nM | 490000 ± 1000 M⁻¹ s⁻¹ | 8.2 ± 0.1 nM | ~ 70 °C | tumor uptake and imaging contrast, (1b) compared with (8b) [3]: no significant differences; Kd (uPAR [1]; [8]): 13.9 nM; koff (uPAR [1]; [8]): 0.00425 ± 1e-05 s⁻¹; reduction of affinity on DOTA-conjugation (uPAR [1]; real-time binding kinetics, vs unconjugated peptides): 8–11 fold; increase in apparent Tm (uPAR [2]; DOTA-conjugated peptides, compared to (1b)): approximately 11 °C; IC50 of DOTA-conjugated peptide compared to unconjugated peptide (uPAR•uPA interaction; (1b) vs (1), (8b) vs (8)): four to fivefold higher
3 | CC(C)C[C@H](NC(=O)[C@H](Cc1ccc(O)cc1)NC(=O)[C@@H](CCCNC(=N)N)NC(=O)[C@@H](CO)NC(=O)[C@H](Cc1ccccc1)NC(=O)[C@H](CC1CCCCC1)NC(=O)[C@H](CC(=O)O)NC(=O)CNC(=O)CNC(=O)[C@@H](CO)NC(=O)CNC(=O)[C@H](CCC(=O)O)NC(=O)[C@H](CCC(=O)O)NC(=O)CN1CCN(CC(=O)O)CCN(CC(=O)O)CCN(CC(=O)O)CC1)C(=O)N[C@@H](Cc1c[nH]c2ccccc12)C(=O)N[C@@H](CO)C(N)=O [10b] ({DOTA}-EEG[dS]GGD[Cha]F[dS][dR]YLWS-NH2) | 0.001367 ± 1e-06 s⁻¹ | 3.18 nM | 429700 ± 400 M⁻¹ s⁻¹ | 4.8 ± 0.2 nM | 66.2 ± 0.3 °C | increase in apparent Tm (uPAR [2]; [7]): 6–14 °C
4 | urokinase-type plasminogen activator [uPA] | – | – | – | – | – | Kd (uPAR [4]): 0.02 nM

Second part, led by results:

Row | koff (uPAR [1]; [5]) | Kd (uPAR [1]; [6]) | kon (uPAR [1]; [5]) | IC50 (uPAR•uPA interaction) | Molecule | Tm (apparent melting temperature of uPAR•peptide complex) (uPAR [2]) | further results
5 | 0.00558 ± 1e-05 s⁻¹ | – | 280000 ± 1000 M⁻¹ s⁻¹ | – | CC(C)C[C@H](NC(=O)[C@H](Cc1ccc(O)cc1)NC(=O)[C@@H](CCCNC(=N)N)NC(=O)[C@@H](CO)NC(=O)[C@H](Cc1ccccc1)NC(=O)[C@H](CC1CCCCC1)NC(=O)[C@H](CC(=O)O)NC(=O)CNC(=O)CNC(=O)[C@@H](CO)NC(=O)CNC(=O)[C@H](CCC(=O)O)NC(=O)[C@@H](N)CCC(=O)O)C(=O)N[C@@H](Cc1c[nH]c2ccccc12)C(=O)N[C@@H](CO)C(=O)O [compound 4] (H-EEG[dS]GGD[Cha]F[dS][dR]YLWS-OH; N-terminus assumed) | 55.2 °C and 55.2 ± 0.2 °C | decrease in apparent Tm on introduction of spacer (uPAR [2]): 10 °C; fold increase in the IC50-value (uPAR•uPA interaction; compared to AE105 (1)): 2.7 fold
6 | 0.01033 ± 3e-05 s⁻¹ | – | 611000 ± 3000 M⁻¹ s⁻¹ | – | CC(C)C[C@@H]1NC(=O)[C@H](Cc2ccc(O)cc2)NC(=O)[C@H](NC(=O)[C@@H](CO)NC(=O)[C@H](Cc2ccccc2)NC(=O)[C@H](CC2CCCCC2)NC(=O)[C@H](CC(=O)O)NC(=O)CNC(=O)CNC(=O)[C@@H](CO)NC(=O)CNC(=O)[C@H](CCC(=O)O)NC(=O)[C@@H](N)CCC(=O)O)CSSC[C@@H](C(=O)O)NC(=O)[C@H](Cc2c[nH]c3ccccc23)NC1=O [compound 6] (H-EEG[dS]GGD[Cha]F[dS][dC]YLWC-OH; disulfide 11-15; N-terminus assumed) | 60.6 °C and 60.6 ± 0.7 °C | association rate constant (kon) compared to (4) (uPAR [1]): improved ~ twofold; dissociation rate constant (koff) compared to (4) (uPAR [1]): ~ twofold impairment; decrease in apparent Tm on introduction of spacer (uPAR [2]): 10 °C; increase in thermal stability (apparent Tm) (uPAR [2]; disulfide-bonded peptide compared to linear peptide (4)): 5 °C; increase in potency (uPAR•uPA interaction; compared to (4)): 1.4 fold; increase in potency (uPAR•uPA interaction; compared to (5)): 11 fold
7 | 0.001497 ± 2e-06 s⁻¹ | – | 595000 ± 1000 M⁻¹ s⁻¹ | – | CC(C)C[C@H](NC(=O)[C@H](Cc1ccc(O)cc1)NC(=O)[C@@H](CCCNC(=N)N)NC(=O)[C@@H](CO)NC(=O)[C@H](Cc1ccccc1)NC(=O)[C@H](CC1CCCCC1)NC(=O)[C@H](CC(=O)O)NC(=O)CNC(=O)CNC(=O)[C@@H](CO)NC(=O)CNC(=O)[C@H](CCC(=O)O)NC(=O)[C@@H](N)CCC(=O)O)C(=O)N[C@@H](Cc1c[nH]c2ccccc12)C(=O)N[C@@H](CO)C(N)=O [compound 10] (H-EEG[dS]GGD[Cha]F[dS][dR]YLWS-NH2; N-terminus assumed) | ~ 65 °C | fold increase in potency on C-terminal amidation (uPAR•uPA interaction; (8) vs (1) and (10) vs (4)): 5.6 fold
